Test results taken from the NIST ThermoML archive (doi:10.1016/j.jct.2017.06.020).

What was measured:
[1] = refractive index (Na D-line) (dimensionless); xn = mol fraction of the nth substance listed; settings: 298.15 K, 101.3 kPa, Liquid, Standard Abbe refractometry
[2] = relative permittivity at various frequencies (dimensionless); xn = mol fraction of the nth substance listed; settings: 298.15 K, 101.3 kPa, Liquid, Frequency=0.01 MHz, Coaxial cylinder capacitor
[3] = 298.15 K; 101.3 kPa; Liquid; Vibrating tube method
[4] = refractive index (Na D-line) (dimensionless); settings: 298.15 K; 101.3 kPa; Liquid; Standard Abbe refractometry
[5] = relative permittivity at various frequencies (dimensionless); settings: 298.15 K; 101.3 kPa; Liquid; Frequency=0.01 MHz; Coaxial cylinder capacitor

CC(C)CCO [3-methylbutan-1-ol] + C[S+](C)[O-]
Settings	refractive index, [1]	relative permittivity, [2]
x2 = 0	1.4048	14.96
x2 = 0.1	1.4071	15.92
x2 = 0.2	1.4118	17.56
x2 = 0.3	1.4168	19.79
x2 = 0.4	1.4227	22.45
x2 = 0.5	1.4305	25.51
x2 = 0.6	1.4385	28.95
x2 = 0.7	1.4459	32.76
x2 = 0.8	1.4549	37.01
x2 = 0.9	1.4651	41.68

CCCCCO [pentan-1-ol] + C[S+](C)[O-]
Settings	refractive index, [1]	relative permittivity, [2]
x2 = 0	1.4082	15.12
x2 = 0.099	1.4109	16.27
x2 = 0.201	1.4164	18.04
x2 = 0.3	1.4217	20.24
x2 = 0.4	1.427	22.93
x2 = 0.5	1.4339	25.94
x2 = 0.6	1.44	29.38
x2 = 0.7	1.4488	33.14
x2 = 0.8	1.4573	37.33
x2 = 0.9	1.4675	41.95

C1CCCCC1 [cyclohexane]
Settings	mass density [kg/m3]	refractive index	relative permittivity
[3]	773.58	–	–
[4]	–	1.4234	–
[5]	–	–	2.02

CC(C)CCO [3-methylbutan-1-ol]
Settings	mass density [kg/m3]	refractive index	relative permittivity
[3]	807.16	–	–
[4]	–	1.4048	–
[5]	–	–	14.96

CC(C)=O [acetone]
Settings	mass density [kg/m3]	refractive index	relative permittivity
[3]	784.42	–	–
[4]	–	1.3564	–
[5]	–	–	20.69

CC(C)CCO [3-methylbutan-1-ol] + CC(=O)c1ccccc1
x2 = 0
Settings	refractive index	relative permittivity
[1]	1.4048	–
[2]	–	14.96

CC(C)=O [acetone] + CC(C)CCO
x1 = 1
Settings	refractive index	relative permittivity
[1]	1.3564	–
[2]	–	20.69

CC(=O)c1ccccc1 [acetophenone]
Settings	mass density [kg/m3]	refractive index	relative permittivity
[3]	1022.77	–	–
[4]	–	1.5318	–
[5]	–	–	17.51

CC(C)=O [acetone] + CCCCCO
x1 = 1
Settings	refractive index	relative permittivity
[1]	1.3564	–
[2]	–	20.69

CCCCCO [pentan-1-ol] + CCC(C)=O
x2 = 0
Settings	refractive index	relative permittivity
[1]	1.4082	–
[2]	–	15.12

CC(=O)c1ccccc1 [acetophenone] + CCCCCO
Settings	refractive index, [1]	relative permittivity, [2]
x1 = 0.1	1.4212	14.86
x1 = 0.2	1.4346	14.71
x1 = 0.3	1.4468	14.66
x1 = 0.4	1.4598	14.75
x1 = 0.501	1.4726	14.94
x1 = 0.6	1.4859	15.25
x1 = 0.7	1.4968	15.65
x1 = 0.8	1.5092	16.19
x1 = 0.9	1.5213	16.83
x1 = 1	1.5318	17.51

CCC(C)=O [butanone] + CCCCCO
Settings	refractive index, [1]	relative permittivity, [2]
x1 = 0.1	1.4053	14.81
x1 = 0.2	1.4023	14.68
x1 = 0.3	1.3988	14.63
x1 = 0.4	1.3959	14.73
x1 = 0.5	1.393	14.96
x1 = 0.599	1.3898	15.35
x1 = 0.7	1.3859	15.9
x1 = 0.8	1.3826	16.56
x1 = 0.9	1.3796	17.44
x1 = 1	1.376	18.38

CC(=O)c1ccccc1 [acetophenone] + CC(C)CCO
Settings	refractive index, [1]	relative permittivity, [2]
x1 = 0.101	1.418	14.65
x1 = 0.199	1.4303	14.47
x1 = 0.301	1.4451	14.39
x1 = 0.4	1.4573	14.45
x1 = 0.5	1.4709	14.66
x1 = 0.6	1.4817	14.97
x1 = 0.699	1.4935	15.44
x1 = 0.8	1.5063	16.03
x1 = 0.9	1.5187	16.71
x1 = 1	1.5318	17.51

C[S+](C)[O-] [dimethyl sulfoxide] + CC(C)CCO
x1 = 1
Settings	refractive index	relative permittivity
[1]	1.4768	–
[2]	–	46.71

C[S+](C)[O-] [dimethyl sulfoxide]
Settings	mass density [kg/m3]	refractive index	relative permittivity
[3]	1096.07	–	–
[4]	–	1.4767	–
[5]	–	–	46.71

CCC(C)=O [butanone] + CC(C)CCO
x1 = 1
Settings	refractive index	relative permittivity
[1]	1.376	–
[2]	–	18.38

CCC(C)=O [butanone]
Settings	mass density [kg/m3]	refractive index	relative permittivity
[3]	799.75	–	–
[4]	–	1.376	–
[5]	–	–	18.38

CC(C)CCO [3-methylbutan-1-ol] + CC(C)=O
Settings	refractive index, [1]	relative permittivity, [2]
x2 = 0	1.4048	14.96
x2 = 0.1	1.4016	14.72
x2 = 0.2	1.3981	14.62
x2 = 0.3	1.3936	14.71
x2 = 0.4	1.3893	14.96
x2 = 0.5	1.3854	15.44
x2 = 0.6	1.3799	16.08
x2 = 0.7	1.3751	16.95
x2 = 0.8	1.3701	17.99
x2 = 0.9	1.3634	19.21

CCCCCO [pentan-1-ol] + CC(C)=O
Settings	refractive index, [1]	relative permittivity, [2]
x2 = 0	1.4082	15.12
x2 = 0.1	1.4049	14.94
x2 = 0.2	1.4015	14.91
x2 = 0.301	1.397	15.01
x2 = 0.399	1.3926	15.28
x2 = 0.5	1.3882	15.73
x2 = 0.601	1.3828	16.35
x2 = 0.701	1.3771	17.21
x2 = 0.8	1.3706	18.21
x2 = 0.9	1.3639	19.36

CCCCCO [pentan-1-ol]
Settings	mass density [kg/m3]	refractive index	relative permittivity
[3]	811.1	–	–
[4]	–	1.4082	–
[5]	–	–	15.12

CC(C)CCO [3-methylbutan-1-ol] + CCC(C)=O
Settings	refractive index, [1]	relative permittivity, [2]
x2 = 0	1.4048	14.96
x2 = 0.099	1.4024	14.59
x2 = 0.2	1.4001	14.38
x2 = 0.3	1.3972	14.33
x2 = 0.4	1.3948	14.44
x2 = 0.499	1.392	14.69
x2 = 0.599	1.3891	15.12
x2 = 0.7	1.3863	15.7
x2 = 0.8	1.3829	16.43
x2 = 0.9	1.38	17.33

C[S+](C)[O-] [dimethyl sulfoxide] + CCCCCO
x1 = 1
Settings	refractive index	relative permittivity
[1]	1.4767	–
[2]	–	46.71

CCCCCO [pentan-1-ol] + CC(=O)c1ccccc1
x2 = 0
Settings	refractive index	relative permittivity
[1]	1.4082	–
[2]	–	15.12
